Test systems include HS 578T breast; NCI-H23 lung; BT-549 breast; EKVX NSCLC; NCI-H522 lung; MCF7 breast; NCI-H460 lung; UO-31 renal; MALME-3M melanoma; K-562 leukemia.
Common to all, as to assay: inhibition of tumour cell growth, NCI panel, 48 h

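Growth conditions: 96-well plates. Treatment: test compound, 48 hours, 5 concentrations. Analysis: linear interpolation between bracketing concentrations; unreached endpoints set to highest concentration. GI50: concentration for 50% inhibition of growth. TGI marks complete inhibition of growth.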

Regarding `COc1cc(CNc2oc(-c3ccccc3)c(-c3ccccc3)c2C#N)cc(CN2CCN(C)CC2)c1O`, the GI50 in the experiment with HS 578T breast is 2.26 µM; with NCI-H23 lung, 1.86 µM; with BT-549 breast, 1.71 µM; with EKVX NSCLC, 1.81 µM; with NCI-H522 lung, 1.87 µM; with MCF7 breast it was 1.46 µM. The GI50 in the experiment on NCI-H460 lung is 1.89 µM; in the experiment on UO-31 renal, 1.23 µM; in the experiment on MALME-3M melanoma it was 1.85 µM; in the experiment with K-562 leukemia, 1.51 µM. The TGI worked out at 6.61 µM with HS 578T breast; 3.79 µM in the experiment with NCI-H23 lung; 3.42 µM with BT-549 breast; 3.59 µM with EKVX NSCLC; 3.95 µM in the experiment with NCI-H522 lung; 3.07 µM in the experiment with MCF7 breast. Besides, the TGI was 3.55 µM in the experiment with NCI-H460 lung, 2.62 µM with UO-31 renal, 3.41 µM in the experiment with MALME-3M melanoma and 4.16 µM in the experiment on K-562 leukemia.
`O=C(Nc1cccc(C(F)(F)F)c1)Oc1ccc(Cl)c2cccnc12`: the GI50 is 3.56 µM in the experiment on HS 578T breast; 1.48 µM in the experiment with NCI-H23 lung; 0.524 µM in the experiment on BT-549 breast; 1.83 µM in the experiment with EKVX NSCLC; 0.906 µM in the experiment with NCI-H522 lung; 1.46 µM with MCF7 breast. Besides, the GI50 in the experiment with NCI-H460 lung was 1.01 µM; in the experiment with UO-31 renal, 1.06 µM; in the experiment with MALME-3M melanoma, 1.18 µM; with K-562 leukemia, 1.02 µM. In addition, the TGI with HS 578T breast was greater than 24 µM; in the experiment on NCI-H23 lung it was 11.7 µM; in the experiment with BT-549 breast it was 3.69 µM; with EKVX NSCLC, 6.88 µM; with NCI-H522 lung it was 4.28 µM; with MCF7 breast, 6.77 µM. Besides, the TGI is 5.08 µM in the experiment on NCI-H460 lung, 5.39 µM in the experiment with UO-31 renal, 3.96 µM in the experiment on MALME-3M melanoma and greater than 100 µM with K-562 leukemia.
`COc1cc2nccc(Oc3ccc(NC(=O)c4cn(C(C)C)c(=O)n(-c5ccc(F)cc5)c4=O)cc3F)c2cc1OC`: the GI50 in the experiment with HS 578T breast is 2.64 µM; in the experiment on NCI-H23 lung, greater than 100 µM; with BT-549 breast it was 3.29 µM; in the experiment on EKVX NSCLC, greater than 30.1 µM; in the experiment on NCI-H522 lung, greater than 22.5 µM; in the experiment with MCF7 breast, greater than 100 µM. Also, the GI50 in the experiment on NCI-H460 lung is 4.98 µM; with UO-31 renal it was 3.65 µM; in the experiment with MALME-3M melanoma it was 2.39 µM; in the experiment with K-562 leukemia, 0.0442 µM. Further, the TGI is 89.2 µM with HS 578T breast; greater than 100 µM in the experiment with NCI-H23 lung; 11.3 µM in the experiment on BT-549 breast; greater than 100 µM in the experiment with EKVX NSCLC; greater than 100 µM with NCI-H522 lung; greater than 100 µM in the experiment with MCF7 breast. The TGI in the experiment on NCI-H460 lung is greater than 100 µM; in the experiment with UO-31 renal it was greater than 40 µM; in the experiment on MALME-3M melanoma, 11.8 µM; in the experiment with K-562 leukemia, greater than 100 µM.
In the case of `CC/C(=C/c1ccc(OC)cc1OC)[N+](=O)[O-]`, the GI50 in the experiment on HS 578T breast was 7.76 µM; in the experiment on NCI-H23 lung, 4.51 µM; in the experiment on BT-549 breast it was 4.15 µM; in the experiment on EKVX NSCLC, 15.4 µM; with NCI-H522 lung, 1.79 µM; in the experiment with MCF7 breast, 0.852 µM. Also, the GI50 in the experiment on NCI-H460 lung is 2.71 µM; in the experiment on UO-31 renal it was 1.57 µM; in the experiment on MALME-3M melanoma, 1.91 µM; in the experiment on K-562 leukemia, 2.91 µM. The TGI with HS 578T breast came to 63.4 µM; in the experiment with NCI-H23 lung, 20.1 µM; in the experiment on BT-549 breast it was 15.3 µM; in the experiment with EKVX NSCLC it was 28.9 µM; in the experiment with NCI-H522 lung, 3.58 µM; in the experiment on MCF7 breast, 3.92 µM. Also, the TGI with NCI-H460 lung was 7.56 µM; in the experiment with UO-31 renal it was 3.09 µM; in the experiment on MALME-3M melanoma, 4.93 µM; with K-562 leukemia it was 61.5 µM.
In the case of `CC(C)(C)OC(=O)Nc1ccc2c(c1)C(NC(=O)Nc1cccc(C#N)c1)CC(C)(C)O2` (stereo not given), the GI50 in the experiment on HS 578T breast is 8.79 µM; in the experiment on NCI-H23 lung, 1.09 µM; in the experiment with BT-549 breast, 2.65 µM; in the experiment with EKVX NSCLC it was 0.691 µM; with NCI-H522 lung it was 3.61 µM; in the experiment on MCF7 breast it was 1.92 µM. The GI50 in the experiment on NCI-H460 lung is 3 µM; in the experiment on UO-31 renal it was 3.36 µM; in the experiment on MALME-3M melanoma, 3.69 µM; with K-562 leukemia, 2.12 µM. Besides, the TGI was greater than 100 µM in the experiment with HS 578T breast; greater than 81.3 µM with NCI-H23 lung; 18 µM with BT-549 breast; greater than 69.6 µM with EKVX NSCLC; 54.7 µM in the experiment with NCI-H522 lung; 30.7 µM in the experiment on MCF7 breast. Also, the TGI with NCI-H460 lung is greater than 100 µM; with UO-31 renal, greater than 100 µM; in the experiment with MALME-3M melanoma, greater than 68 µM; in the experiment on K-562 leukemia, greater than 100 µM.
Turning to `CC[C@H](C)[C@H](NC(=O)c1cccn1C)C(=O)N(C)[C@H](C[C@@H](OC(C)=O)c1nc(C(=O)N[C@@H](Cc2ccccc2)C[C@H](C)C(=O)OC)cs1)C(C)C`, the GI50 in the experiment with HS 578T breast is 0.226 µM; in the experiment with NCI-H23 lung, 0.216 µM; with BT-549 breast, 0.155 µM; with EKVX NSCLC it was 0.543 µM; in the experiment with NCI-H522 lung, 0.0661 µM; in the experiment with MCF7 breast, 0.0807 µM. The GI50 in the experiment on NCI-H460 lung is 0.123 µM; in the experiment with UO-31 renal, 1.3 µM; in the experiment with MALME-3M melanoma it was 11.1 µM; with K-562 leukemia, 0.177 µM. In addition, the TGI in the experiment with HS 578T breast was greater than 31.2 µM; with NCI-H23 lung, greater than 33.3 µM; in the experiment with BT-549 breast, 2.48 µM; in the experiment on EKVX NSCLC it was greater than 33.3 µM; in the experiment on NCI-H522 lung, 2.08 µM; with MCF7 breast, greater than 33.3 µM. The TGI was greater than 14.4 µM with NCI-H460 lung, greater than 33.3 µM in the experiment with UO-31 renal, greater than 33.3 µM with MALME-3M melanoma and greater than 33.3 µM with K-562 leukemia.
As for `O=C1NC(c2ccccc2)C2(C(=O)O)CN(C3CC3)c3cc(N4CCNCC4)c(F)cc3C2N1` (stereo not given), the GI50 in the experiment on HS 578T breast, with NCI-H23 lung, in the experiment with BT-549 breast, in the experiment on EKVX NSCLC, in the experiment with NCI-H522 lung and in the experiment on MCF7 breast was greater than 100 µM each time. In addition, the GI50 in the experiment with NCI-H460 lung, in the experiment with UO-31 renal, with MALME-3M melanoma and in the experiment on K-562 leukemia was greater than 100 µM in each case. Also, the TGI with HS 578T breast, in the experiment on NCI-H23 lung, in the experiment on BT-549 breast, in the experiment on EKVX NSCLC, in the experiment with NCI-H522 lung and in the experiment on MCF7 breast was greater than 100 µM each time. The TGI in the experiment on NCI-H460 lung, in the experiment on UO-31 renal, in the experiment on MALME-3M melanoma and with K-562 leukemia was greater than 100 µM in each case.

The record behind these values is PubChem BioAssay (NCI).
